pIC50: −log10 of the molar value. Like-named read-outs stand apart in the source and are kept apart here.
Columns and labels:
Recombinant human FGFR1 = Recombinant human FGFR1 (Homo sapiens, UniProt P11362); assay: Transcreener Kinase Assay of FGFR1; type: biochemical
Description: (§1) • 1. […] Prepare Solution • Test compounds were solved in DMSO and were diluted with assay buffer to 5 folds of final concentration keeping the DMSO concentration at 5%. Further dilution are needed to make final concentrations are at 1, 0.33, 0.11, 0.037, 0.012, 0.004, 0.0014, 0.0005 μM; (the final concentration of DMSO is 1%). • Enzyme/Substrate stock Preparation: Recombinant human FGFR1 and Poly E4Y are both diluted in assay buffer.
• 3. Enzymatic Reaction • In a 96-well plate, add 5 μL of diluted solution of test compound or control solution. (positive control: 5 μL of 5% DMSO; negative control: 5 μL of 500 mM EDTA) into desired wells respectively; • Add 10 μL of Enzyme/Substrate stock into each well; • Add 10 μL of ATP Diluents to initiate the enzyme reaction and vortex the plate immediately on a plate shaker; • For the wells to make standard curve, add 5 μL of 5% DMSO, 10 μL of assay buffer and 10 μL of ATP standard curve stock. • Incubate the plate for 45 min at 28° C. on a plate shaker in a low speed. • 4. […] Excitation wavelength: 610 nm, Emission wavelength: 670 nm. • 5. Data Analysis
(§2) [formula] Note: • [ADP] in Compound well represents the ADP concentration in test compound well. • [ADP] in Positive control well represents the ADP concentration in 5% DMSO well • Conversion of mP value to ADP concentration is calculated based on the formula which determined by standard curve. And mP value is measured by following the instruction provided by BellBrook Labs. (www.bellbrooklabs.com). • 6. IC50: determined with add-in software for Microsoft Excel, XLfit™ (version 2.0) from ID Business Solutions (Guildford, UK).

Recombinant human FGFR2 = Recombinant human FGFR2 (Homo sapiens, UniProt P21802); assay: Transcreener Kinase Assay of FGFR2; type: biochemical
Recombinant human FGFR2, sequence (P21802 22-821): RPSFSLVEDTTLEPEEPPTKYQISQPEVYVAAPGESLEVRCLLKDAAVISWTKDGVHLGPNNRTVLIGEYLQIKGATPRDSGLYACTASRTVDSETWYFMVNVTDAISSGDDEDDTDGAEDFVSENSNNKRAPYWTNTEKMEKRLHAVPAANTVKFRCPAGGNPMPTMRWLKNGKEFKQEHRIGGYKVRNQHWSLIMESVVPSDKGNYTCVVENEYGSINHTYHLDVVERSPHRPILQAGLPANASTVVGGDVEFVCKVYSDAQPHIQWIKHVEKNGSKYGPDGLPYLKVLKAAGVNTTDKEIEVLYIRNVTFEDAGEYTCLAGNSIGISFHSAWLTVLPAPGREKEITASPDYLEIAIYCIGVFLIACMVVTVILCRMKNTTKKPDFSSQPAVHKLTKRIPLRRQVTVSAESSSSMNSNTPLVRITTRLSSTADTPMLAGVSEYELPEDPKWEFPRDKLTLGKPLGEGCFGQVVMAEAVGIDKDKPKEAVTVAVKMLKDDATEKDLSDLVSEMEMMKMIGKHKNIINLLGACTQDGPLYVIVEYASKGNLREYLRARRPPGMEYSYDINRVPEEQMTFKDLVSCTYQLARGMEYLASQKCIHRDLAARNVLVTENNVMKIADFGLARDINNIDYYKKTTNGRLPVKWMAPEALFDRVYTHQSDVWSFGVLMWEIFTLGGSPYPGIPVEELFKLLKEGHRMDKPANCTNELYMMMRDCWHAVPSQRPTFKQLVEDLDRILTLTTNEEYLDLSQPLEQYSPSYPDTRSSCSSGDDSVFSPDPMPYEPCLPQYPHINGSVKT
Description: Example 24: Transcreener Kinase Assay of FGFR2
as §1, with “FGFR2” for “FGFR1”, “buffer. The final concentration is 0.3 ng/μL for FGFR2 and 62.5 ng/μL for Poly E4Y. The mixture is being kept in ice before use; • Prepare ATP Diluents, 10 mM ATP is diluted in assay buffer, the final concentration is 25 μM; • Prepare ADP Diluents: diluted ADP (500 μM) in assay buffer, the final concentration is 25 μM; • Prepare ATP standard curve stock as following:” for “buffer.”
• 3. Enzymatic Reaction • In a 96-well plate, add 5 μL of deluted solution of test compound or control solution. (positive control: 5 μL of 5% DMSO; negative control: 5 μL of 500 mM EDTA) into desired wells respectively; • Add 10 μL of Enzyme/Substrate stock into each well; • Add 10 μL of ATP Diluents to initiate the enzyme reaction and vortex the plate immediately on a plate shaker; • For the wells to make standard curve, add 5 μL of 5% DMSO, 10 μL of assay buffer and 10 μL of ATP standard curve stock. • Incubate the plate for 45 min at 28° C. on a plate shaker in a low speed. • 4. Stoping Reaction and Detecting ADP • Detection Mix Preparation: The mixture is made by dilution with MilliQ water; as following: ADP Alexa633 tracer (1:100), ADP antibody (1:158), and stop & detect buffer (1:10); • Tracer Only control Preparation: The mixture is made by dilution with MilliQ water; as following: ADP Alexa633 tracer (1:100), and stop & detect buffer (1: 10) • No Tracer control Preparation: stop & detect buffer is diluted with MilliQ water; by 10 fold. • Add 25 μL of detection mix, Tracer Only control and No Tracer control into corresponding wells, respectively; • Incubate at 28° C. for 1 h, on a plate shaker in a low speed; • Measure florescence polarization (mP) on TECAN F500. Excitation wavelength: 610 nm, Emission wavelength: 670 nm. • 5. Data Analysis
as §2

FGFR3 kinase = FGFR3 kinase (Homo sapiens, UniProt P22607); assay: Z-Lyte Kinase Assay of FGFR3; type: biochemical
FGFR3 kinase, sequence (P22607 23-806): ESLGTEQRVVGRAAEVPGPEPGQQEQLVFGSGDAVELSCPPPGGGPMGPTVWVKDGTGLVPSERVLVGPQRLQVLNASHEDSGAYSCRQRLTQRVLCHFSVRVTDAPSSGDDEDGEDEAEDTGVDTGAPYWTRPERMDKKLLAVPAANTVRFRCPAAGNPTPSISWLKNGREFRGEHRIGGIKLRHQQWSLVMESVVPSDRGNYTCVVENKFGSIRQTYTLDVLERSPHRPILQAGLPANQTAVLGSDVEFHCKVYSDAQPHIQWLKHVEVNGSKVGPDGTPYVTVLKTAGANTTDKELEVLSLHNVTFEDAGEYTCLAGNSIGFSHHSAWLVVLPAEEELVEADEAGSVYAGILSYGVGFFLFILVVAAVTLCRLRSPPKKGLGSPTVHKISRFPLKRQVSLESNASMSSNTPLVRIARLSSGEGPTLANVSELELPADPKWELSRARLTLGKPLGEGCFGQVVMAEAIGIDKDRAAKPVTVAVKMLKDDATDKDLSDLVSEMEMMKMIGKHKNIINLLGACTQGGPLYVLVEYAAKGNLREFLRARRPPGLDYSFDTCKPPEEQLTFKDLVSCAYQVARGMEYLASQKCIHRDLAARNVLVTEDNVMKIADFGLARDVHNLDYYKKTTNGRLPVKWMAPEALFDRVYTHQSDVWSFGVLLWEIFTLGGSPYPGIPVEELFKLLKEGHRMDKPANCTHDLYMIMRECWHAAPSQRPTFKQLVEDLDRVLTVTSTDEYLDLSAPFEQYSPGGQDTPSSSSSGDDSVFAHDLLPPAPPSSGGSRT
Description: Example 25: Z-Lyte Kinase Assay of FGFR3
• 1. Materials and Reagents:
• 2. Reaction Steps: Plate Map
• 3. […] The final concentrations are 1, 0.33, 0.11, 0.037, 0.012, 0.004, 0.0014, 0.00046 μM, and the final concentration of DMSO is 2%. • 3) Kinase/Peptide Mixture (P/K solution): Prepare Kinase/Peptide Mixture by diluting the kinase to 0.7 μg/ml and the Z-LYTE™ Tyr 4 peptide to 4 μM in 1.33× Kinase Buffer. Mix gently by pipetting. • 4) Phospho-peptide Solution (PP solution): Add 0.4 μl of Z-LYTE™ Tyr 4 Phospho-peptide to 99.6 μl of 1.33× Kinase Buffer. • 5) ATP Solution: Prepare ATP Solution by diluting the 10 mM of ATP in 1.33× Kinase Buffer to 300 uM. • 6) Development Solution: Dilute Development Reagent B with Development Buffer as 1:128. • 4. […] Shake the plate for 30 Sec and centrifuge (1500 rpm, 1 min). • Seal the plate to protect from the light and incubate the plate for 1 hour at RT (25-30° C.). • 2) Development reaction • Add 5 μl of the Development solution to all wells. • Shake the plate for 30 Sec and centrifuge (1500 rpm, 1 min). • Seal the plate to protect from the light and incubate the plate for 1 hour at RT (25-30° C.). • 3) Stop and Read • Add 5 μl of the Stop reagent to all wells. • Shake the plate for 30 Sec and centrifuge (1500 rpm, 1 min). • Measure the value of Coumarin (Ex400 nm, Em445 nm) and fluorescein (Ex400 nm, Em520 nm), respectively. • 5. Data Analysis Emission Ratio(ER)=Coumarin Emission (445 nm)/Fluorescein Emission (520 nm) % Phosphorylation=1−[ER×C3520nm-C3445nm]/[(C1445nm-C3445nm)+ER×(C3520nm−C1520nm)] Inhibition rate (IR)=1−% Photest Cpd/% PhoC2 • 6. IC50 Value: determined with add-in software for Microsoft Excel, XLfit™ (version 2.0) from ID Business Solutions (Guildford, UK)

KG-1 = assay: Cellular Proliferation Assay (Cell Counting Kit-8), KG-1; type: cell-based; conditions: Homo sapiens; KG-1 cells, 72 hours; read-out: KG1 IC50
Description: (§3) Example 26: Cellular Proliferation Assay
(§4) • 1. Cell Line • KG-1 (ATCC Accession No. CCL-246), • SNU-16 (ATCC Accession No. CRL-5974), • RT-112 (ECACC Accession No. 85061106) • 2. Assay Protocol • FGFR related cancer cell proliferation is measured in 96-well plates using Cell Counting Kit-8 (Dojindo CK04-13). • Seed 30000 cells/well of KG1, 5000 cells/well of SNU16, and 1000 cells/well of RT112 in a volume of 100 μL/well in growth media. • After 24 hours, dilute the test compound to 10, 3.3, 1.1, 0.37, 0.12, 0.04, 0.013, 0.004 μM, keeping the DMSO concentration at 5%. • Add 10 μL of 8-point compound series to the wells of culturing cells. • Incubate at 37° C. and 5% CO2 for 72 hours • Add 10 μL/well of CCkit8 and incubate at 37° C. and 5% CO2 for an hour • Detect the optical density of each well at 450 nm on Labsystems Multiskan K3. • 3. Data Analysis
(§5) [formula] Note: • ODcompound well represents the optical density of cells treated with compound. • ODcell well represents the optical density of cells without compounds treatment.(only 0.5% DMSO) • ODcontrol well represents the optical density of culture media background • IC50: determined with add-in software for Microsoft Excel, XLfit™ (version 2.0) from ID Business Solutions (Guildford, UK).

SNU-16 = assay: Cellular Proliferation Assay (Cell Counting Kit-8), SNU-16; type: cell-based; conditions: Homo sapiens; SNU-16 cells, 72 hours
Description: as §3, §4, §5

RT-112 = assay: Cellular Proliferation Assay (Cell Counting Kit-8), RT-112; type: cell-based; conditions: Homo sapiens; RT-112 cells, 72 hours
Description: as §3, §4, §5

Recombinant human FGFR1, sequence (P11362 22-822): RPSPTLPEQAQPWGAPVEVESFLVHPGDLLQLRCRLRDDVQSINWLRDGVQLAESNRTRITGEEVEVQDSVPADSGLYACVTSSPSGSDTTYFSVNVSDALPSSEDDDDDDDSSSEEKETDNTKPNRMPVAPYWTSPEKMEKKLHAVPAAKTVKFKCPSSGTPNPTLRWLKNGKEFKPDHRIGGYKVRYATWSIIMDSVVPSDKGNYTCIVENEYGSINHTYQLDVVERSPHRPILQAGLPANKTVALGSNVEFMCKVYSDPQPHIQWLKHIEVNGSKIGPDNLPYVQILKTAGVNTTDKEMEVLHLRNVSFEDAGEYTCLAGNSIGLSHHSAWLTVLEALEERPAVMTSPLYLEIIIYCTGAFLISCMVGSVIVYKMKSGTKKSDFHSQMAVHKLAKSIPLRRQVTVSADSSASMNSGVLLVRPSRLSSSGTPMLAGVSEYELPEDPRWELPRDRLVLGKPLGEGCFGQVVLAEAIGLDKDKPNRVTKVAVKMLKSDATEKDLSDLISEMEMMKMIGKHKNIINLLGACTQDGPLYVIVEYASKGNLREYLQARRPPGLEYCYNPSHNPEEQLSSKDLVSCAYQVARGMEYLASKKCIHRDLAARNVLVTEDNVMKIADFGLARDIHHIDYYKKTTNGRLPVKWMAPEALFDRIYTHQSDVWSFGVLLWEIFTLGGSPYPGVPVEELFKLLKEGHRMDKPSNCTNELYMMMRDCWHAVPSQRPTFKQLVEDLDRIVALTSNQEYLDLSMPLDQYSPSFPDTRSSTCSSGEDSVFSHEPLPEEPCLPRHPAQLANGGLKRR

Row | SMILES | pIC50 (Recombinant human FGFR1; read-out: FGFR1 (FP) IC50) | pIC50 (Recombinant human FGFR2; read-out: FGFR2 (FP) IC50) | pIC50 (FGFR3 kinase) | pIC50 (SNU-16) | pIC50 (Recombinant human FGFR1; FP) | pIC50 (Recombinant human FGFR2; FP) | pIC50 (FGFR3 kinase; Z-lyte) | pIC50 (KG-1) | pIC50 (RT-112)
1 | CNC(=O)c1cc(COc2cnc(Nc3ccc(S(C)(=O)=O)cc3)nc2)c(F)c(OC)c1 [Compound 226] | 7.52 | 8.00 | 7.57 | 7.49 | – | – | – | 7.46 | 6.55
2 | CNC(=O)c1cc(COc2cnc(Nc3cnn(C[C@H](O)CO)c3)nc2)c(F)c(OC)c1 [Compound 220] | 7.77 | 8.00 | 8.10 | – | – | – | – | – | –
3 | CNC(=O)c1cc(COc2cnc(Nc3ccc([C@H]4CCCNC4)nc3)nc2)c(Cl)c(OC)c1 [Compound 245] | 7.80 | 7.77 | 7.74 | 6.87 | – | – | – | 6.27 | 6.24
4 | CNC(=O)c1cc(COc2cnc(Nc3ccc(C4CCNCC4)nc3)nc2)c(F)c(OC)c1 [Compound 236] | 7.55 | 7.85 | 8.05 | – | – | – | – | – | –
5 | CCN1CCN(c2ccc(Nc3ncc(CCc4cc(C(=O)NC)cc(OC)c4F)cn3)cc2OC)CC1 [Compound 157] | 8.15 | 8.30 | 8.22 | – | – | – | – | – | –
6 | CNC(=O)c1cc(COc2cnc(Nc3ccc(C4CCNCC4)c(OC)c3)nc2)c(F)c(OC)c1 [Compound 258] | 7.55 | 7.82 | 7.77 | – | – | – | – | – | –
7 | CCn1cc(Nc2ncc(/C=C/c3cc(C(=O)NC)cc(OC)c3Br)cn2)cn1 [Compound 3] | 7.55 | 7.55 | 6.73 | – | – | – | – | – | –
8 | CNC(=O)c1cc(CCc2cnc(Nc3cccc(N4C[C@@H](C)N[C@@H](C)C4)c3)nc2)cc(OC)c1 [Compound 12] | – | – | – | 6.58 | – | – | – | – | –
9 | CNC(=O)c1cc(CCc2cnc(Nc3cnn(CC(F)(F)F)c3)nc2)c(F)c(OC)c1 [Compound 35] | – | 8.00 | – | – | – | – | – | – | –
10 | CNC(=O)c1cc(CCc2cnc(Nc3cnn([C@H]4CCOC4)c3)nc2)c(F)c(OC)c1 [Compound 137] | 8.05 | 8.30 | 7.89 | 7.74 | – | – | – | – | –
11 | CCOc1cc(CCc2cnc(Nc3ccc(N4CCN(CC)CC4)cc3)nc2)cc(C(=O)NOC)c1 [Compound 50] | – | – | – | 6.24 | – | – | – | 6.41 | –
12 | CNC(=O)c1cc(COc2cnc(Nc3cnn(C[C@@H](O)CO)c3)nc2)c(F)c(OC)c1 [Compound 219] | 7.85 | 8.00 | 8.10 | – | – | – | – | – | –
13 | CCN1CC[C@H](n2cc(Nc3ncc(CCc4cc(C(=O)NC)cc(OC)c4F)cn3)cn2)C1 [Compound 191] | 7.00 | 7.06 | 6.88 | – | – | – | – | – | –
14 | CNC(=O)c1cc(COc2cnc(Nc3ccc(N4C[C@@H](C)N[C@@H](C)C4)nc3)nc2)c(F)c(OC)c1 [Compound 257] | – | – | – | – | – | – | – | 6.99 | –
15 | CNC(=O)c1cc(CCc2cnc(Nc3cnn([C@@H]4CCOC4)c3)nc2)c(F)c(OC)c1 [Compound 136] | 8.00 | 8.15 | – | – | – | – | – | 7.54 | 6.78

Further lines, with some results ahead:

Row | pIC50 (Recombinant human FGFR1; read-out: FGFR1 (FP) IC50) | pIC50 (Recombinant human FGFR2; read-out: FGFR2 (FP) IC50) | pIC50 (FGFR3 kinase) | pIC50 (SNU-16) | pIC50 (Recombinant human FGFR1; FP) | pIC50 (Recombinant human FGFR2; FP) | pIC50 (FGFR3 kinase; Z-lyte) | SMILES | pIC50 (KG-1) | pIC50 (RT-112)
16 | 7.70 | 7.64 | 7.68 | 7.68 | – | – | – | CNC(=O)c1cc(COc2cnc(Nc3cnc(N4C[C@@H](C)N[C@@H](C)C4)nc3)nc2)c(Cl)c(OC)c1 [Compound 276] | 7.08 | 6.85
17 | 8.00 | 8.05 | 8.10 | 7.82 | – | – | – | CCN1CCN(c2ccc(Nc3ncc(OCc4cc(C(=O)NC)cc(OC)c4Cl)cn3)cn2)CC1 [Compound 272] | 7.74 | 7.51
18 | – | – | – | 8.70 | 8.22 | 8.40 | 8.40 | CNC(=O)c1cc(COc2cnc(Nc3ccc(N4CCN(C)CC4)c(OC)c3)nc2)c(Cl)c(OC)c1 [Compound 288] | 8.70 | 8.52
19 | – | – | – | – | 7.74 | 8.10 | 7.96 | CNC(=O)c1cc(COc2cnc(Nc3ccc(N4C[C@@H]5CCN(C)[C@@H]5C4)c(OC)c3)nc2)c(F)c(OC)c1 [Compound 293] | – | –
20 | – | – | – | – | 7.85 | 8.22 | 8.30 | CNC(=O)c1cc(COc2cnc(Nc3ccc(N4CCN(C5CC5)CC4)c(OC)c3)nc2)c(F)c(OC)c1 [Compound 294] | – | –
21 | – | – | – | – | 7.92 | 8.15 | 8.05 | CNC(=O)c1cc(COc2cnc(Nc3ccc(N4CCN(C5CCCC5)CC4)c(OC)c3)nc2)c(F)c(OC)c1 [Compound 302] | – | –

Source: patent publication US9701680B2, “Pyrimidine and pyridine compounds and their usage” (HUTCHISON MEDIPHARMA LIMITED, priority 2013, dated 2017)
